The source of these data is DBAASP.

Converted amounts (≈) assume the structure as drawn. “And” between values parts separate entries of the source, which are not always exact repeats. Identical values can stand only once.

The test has as its system Escherichia coli ATCC 25922. The test can be described thus: ≥ marks a high value that may be exact or a test limit, other limits are often not marked, values filed in µg/mL are converted to µM.
In turn, `CC(C)C[C@H](NC(=O)[C@H](Cc1ccccc1)NC(=O)[C@@H]1CCCN1C(=O)[C@H](Cc1c[nH]c2ccccc12)NC(=O)[C@H](Cc1c[nH]c2ccccc12)NC(=O)[C@H](Cc1c[nH]c2ccccc12)NC(=O)[C@@H]1CCCN1C(=O)[C@H](Cc1ccccc1)NC(=O)[C@H](CCCN=C(N)N)NC(=O)[C@H](CCCN=C(N)N)NC(=O)[C@@H](NC(=O)[C@@H](NC(=O)CN)[C@@H](C)O)C(C)C)C(=O)N[C@@H](CCCN=C(N)N)C(=O)N[C@@H](CCCN=C(N)N)C(=O)O` [GTVRRFPWWWPFLRR] had a minimum inhibitory concentration (MIC) of 8 µM (≈ 16.5 µg/mL). Next, `CC(C)[C@H](NC(=O)[C@H](CC(N)=O)NC(=O)[C@H](CCCCN)NC(=O)[C@H](CCCN=C(N)N)NC(=O)[C@@H]1CCCN1C(=O)[C@H](C)N)C(=O)N[C@@H](CCCN=C(N)N)C(=O)N[C@@H](Cc1ccccc1)C(=O)O` [APRKNVRF]: 130 µM (≈ 128 µg/mL); `CC[C@H](C)[C@H](NC(=O)CN)C(=O)N[C@@H](Cc1ccccc1)C(=O)N[C@@H](CC(C)C)C(=O)N[C@@H](CC(=O)O)C(=O)N[C@@H](CCCCN)C(=O)N[C@@H](CC(C)C)C(=O)N[C@@H](CCCCN)C(=O)N[C@@H](CC(N)=O)C(=O)N[C@@H](Cc1ccccc1)C(=O)N[C@@H](C)C(=O)N[C@@H](CCCCN)C(=O)NCC(=O)N[C@H](C(=O)N[C@@H](C)C(=O)N[C@@H](CCC(N)=O)C(=O)N[C@@H](CO)C(=O)N[C@@H](CC(C)C)C(=O)N[C@@H](CC(C)C)C(=O)N[C@@H](CC(N)=O)C(=O)N[C@@H](CCCCN)C(=O)N[C@@H](C)C(=O)N[C@@H](CO)C(=O)N[C@H]1CSSC[C@@H](C(=O)O)NC(=O)[C@H](CCC(N)=O)NC(=O)CNC(=O)[C@H](CO)NC(=O)[C@H](CC(C)C)NC(=O)[C@H](CCCCN)NC1=O)C(C)C` [GIFLDKLKNFAKGVAQSLLNKASCKLSGQC]: 2 µM (≈ 6.36 µg/mL); `CC[C@H](C)[C@H](NC(=O)[C@H](C)NC(=O)CNC(=O)[C@H](C)NC(=O)[C@H](CCCCN)NC(=O)[C@H](CO)NC(=O)[C@H](C)NC(=O)[C@H](CCSC)NC(=O)CN)C(=O)N[C@@H](C)C(=O)NCC(=O)N[C@@H](CCCCN)C(=O)N[C@H](C(=O)N[C@@H](C)C(=O)N[C@@H](CCCCN)C(=O)N[C@H](C(=O)N[C@@H](C)C(=O)N[C@@H](CC(C)C)C(=O)N[C@@H](CCCCN)C(=O)N[C@@H](C)C(=O)N[C@@H](CC(C)C)C(=O)NCC(=O)NCC(=O)N[C@@H](CS)C(N)=O)C(C)C)[C@@H](C)CC` [GMASKAGAIAGKIAKVALKALGGC]: 6.3 µM (≈ 13.8 µg/mL). In the case of `CC(C)C[C@H](NC(=O)[C@H](CC(C)C)NC(=O)[C@H](CCCCN)NC(=O)[C@H](CCCCN)NC(=O)[C@H](CC(C)C)NC(=O)[C@H](Cc1c[nH]c2ccccc12)NC(=O)[C@H](CCCCN)NC(=O)[C@H](CC(C)C)NC(=O)[C@@H](N)Cc1ccccc1)C(N)=O` [FLKWLKKLL], the MIC was 6.73 µM and 13.5 µM. In turn, `CC[C@H](C)[C@H](NC(=O)[C@H](CCCN=C(N)N)NC(=O)[C@H](CCCCN)NC(=O)[C@H](CC(C)C)NC(=O)[C@H](CCSC)NC(=O)CN)C(=O)N[C@@H](CCCCN)C(=O)N[C@H](C(=O)N[C@@H](CC(C)C)C(=O)N[C@@H](CC(C)C)C(N)=O)[C@@H](C)O` [GMLKRIKTLL] returned an MIC of 200 µM (≈ 234 µg/mL). Next, `CC(C)[C@H](NC(=O)[C@H](CC(N)=O)NC(=O)[C@H](CCCCN)NC(=O)[C@H](CCCN=C(N)N)NC(=O)[C@@H]1CCCN1C(=O)[C@H](C)N)C(=O)N[C@@H](CCCCN)C(=O)N[C@@H](Cc1c[nH]c2ccccc12)C(=O)O` [APRKNVKW]: 64.1 µM (≈ 64 µg/mL); `CC[C@H](C)[C@H](NC(=O)[C@H](CCCCN)NC(=O)[C@H](CC(C)C)NC(=O)[C@@H](NC(=O)[C@H](CCCCN)NC(=O)[C@H](C)N)C(C)C)C(=O)N[C@@H](CO)C(=O)N[C@@H](CCCN=C(N)N)C(=O)N[C@@H](CCCN=C(N)N)C(=O)N[C@@H](C)C(=O)N[C@@H](Cc1ccccc1)C(=O)N[C@@H](CCCN=C(N)N)C(=O)N[C@@H](CCCCN)C(N)=O` [AKVLKISRRAFRK]: 22.5 µM and 63.6 µM.

For orientation: MIC means the lowest concentration found to suppress growth. High values mean a need for much substance, low ones inhibition by little substance.
